Holding throughout (format): functional, cell-based
Experiment [1] deals with SGC-7901. The experiment can be described thus: Cytotoxicity against human SGC7901 cells assessed as inhibition of cell growth after 48 hrs by MTT assay. Conditions: SGC-7901, 48 h.
In experiment [2] the test system is A549. Kind of experiment: Cytotoxicity against human A549 cells assessed as inhibition of cell growth after 48 hrs by MTT assay. The following applies: A549, 48 h. A general note: Tetrazolium dyes change colour on reduction, which living cells bring about.
Experiment [3] relates to MCF7. The experiment can be described thus: Cytotoxicity against human MCF7 cells assessed as inhibition of cell growth after 48 hrs by MTT assay. Conditions: MCF7, 48 h.
Experiment [4] has as its system SMMC-7721. Kind of experiment: Cytotoxicity against human SMMC7721 cells assessed as inhibition of cell growth after 48 hrs by MTT assay. Conditions: SMMC-7721, 48 h.
For experiment [5], the system named is HeLa. Kind of experiment: Cytotoxicity against human HeLa cells assessed as inhibition of cell growth by MTT assay.

What is called IC50 is the concentration that gives 50% inhibition. With `CCCCCCn1c2cc(OC)ccc2c2ccnc(C)c21`, the IC50 in experiment [1] was 13.3 µM; in experiment [2] it was 4.89 µM; in experiment [3], greater than 50 µM; in experiment [4], 14.4 µM.

Take `COc1ccc2c3ccnc(C)c3n(Cc3cc(F)cc(F)c3)c2c1`: the IC50 in experiment [1] was 6.47 µM; in experiment [2], 18.4 µM; in experiment [3], greater than 50 µM; in experiment [4], greater than 50 µM.

With `COc1ccc2c3ccnc(C)c3n(CCCCCCBr)c2c1`, the IC50 was 6.94 µM in experiment [1], 0.87 µM in experiment [2], 0.45 µM in experiment [3] and 3.79 µM in experiment [4].

On to `COc1ccc2c3ccnc(C)c3n(C)c2c1`, for which the IC50 in experiment [1] was 9.67 µM; in experiment [2], 4.97 µM; in experiment [3], greater than 50 µM; in experiment [4], 43.6 µM.

On to `CCCCCCCCn1c2cc(OC)ccc2c2ccnc(C)c21`, for which the IC50 is 6.68 µM in experiment [1], 4.77 µM in experiment [2], greater than 50 µM in experiment [3] and 6.95 µM in experiment [4].

For `COc1ccc2c3ccnc(C)c3n(S(=O)(=O)c3ccccc3)c2c1`, the IC50 was 5.95 µM in experiment [1], 0.83 µM in experiment [2], greater than 50 µM in experiment [3] and greater than 50 µM in experiment [4].

Regarding `CCCCCn1c2cc(OC)ccc2c2ccnc(C)c21`, the IC50 is 20.5 µM in experiment [1], 6.37 µM in experiment [2], greater than 50 µM in experiment [3] and 17.2 µM in experiment [4].

Take `COc1ccc2c3ccnc(C)c3n(CCCc3ccccc3)c2c1`: in experiment [5], the IC50 was 24 µM.

In the case of `COc1ccc2c3ccnc(C)c3n(Cc3ccc(C)cc3)c2c1`, the half-inhibitory concentration (IC50) is 5.29 µM in experiment [1], 3.89 µM in experiment [2], greater than 50 µM in experiment [3] and 21.3 µM in experiment [4].

As to `COc1cccc2c1C(=O)c1c(O)c3c(c(O)c1C2=O)C[C@@](O)(C(=O)CO)C[C@@H]3O[C@H]1C[C@H](N)[C@H](O)[C@H](C)O1` [DOXORUBICIN], the results for the concentration for half-maximal inhibition (IC50) in experiment [2], in experiment [3] and in experiment [4] were 0.76 µM, 0.83 µM and 1.39 µM, respectively.

Turning to `COc1ccc2c3ccnc(C)c3n(Cc3ccccc3F)c2c1`, the IC50 was 43.6 µM in experiment [1], 5.67 µM in experiment [2], greater than 50 µM in experiment [3] and greater than 50 µM in experiment [4].

Take `COc1ccc2c3ccnc(C)c3n(CCCCCBr)c2c1`: the IC50 in experiment [1] worked out at 9.34 µM; in experiment [2], 4.8 µM; in experiment [3], 0.76 µM; in experiment [4], 6.49 µM.

With `CCCn1c2cc(OC)ccc2c2ccnc(C)c21`, the IC50 is 19.4 µM in experiment [1], 9.66 µM in experiment [2], greater than 50 µM in experiment [3] and 48.8 µM in experiment [4].

As for `COc1ccc2c(c1)[nH]c1c(C)nccc12` [HARMINE], the IC50 in experiment [1] worked out at 40.8 µM; in experiment [2], 42.2 µM; in experiment [3], 68.3 µM; in experiment [4], 59.4 µM.

For the compound `COc1ccc2c3ccnc(C)c3n(CCCCBr)c2c1`, the IC50 in experiment [1] was determined as 10.6 µM; in experiment [2], 12.2 µM; in experiment [3], 0.85 µM; in experiment [4], 8.34 µM.

The values above are taken from ChEMBL document CHEMBL4425146, “Synthesis and biological evaluation of N(9)-substituted harmine derivatives as potential anticancer agents” (Bioorg Med Chem Lett, 2016).
